Experimental data from ChEMBL document CHEMBL3112480, “γ-Alkylidene-γ-lactones and isobutylpyrrol-2(5H)-ones analogues to rubrolides as inhibitors of biofilm formation by gram-positive and gram-negative bacteria” (Bioorg Med Chem Lett, 2014).
Values after ≈ are worked out from the molar mass of the structure shown.

What was measured:
Streptococcus mutans [1] = experiment: Antibacterial activity against Streptococcus mutans ATCC 25175 assessed as effect on planktonic growth at 0.34 ug/ml after 20 hrs relative to control; type: functional
Streptococcus mutans [2] = experiment: Antibacterial activity against Streptococcus mutans ATCC 25175 assessed as effect on planktonic growth at 0.17 ug/ml after 20 hrs relative to control; type: functional
Streptococcus mutans [3] = experiment: Antibacterial activity against Streptococcus mutans ATCC 25175 assessed as effect on planktonic growth at 0.68 ug/ml after 20 hrs relative to control; type: functional
Staphylococcus aureus [4] = experiment: Antibacterial activity against Staphylococcus aureus ATCC 25923 assessed as effect on planktonic growth at 1.37 ug/ml after 20 hrs relative to control; type: functional
Streptococcus mutans [5] = experiment: Antibacterial activity against Streptococcus mutans ATCC 25175 assessed as effect on planktonic growth at 1.37 ug/ml after 20 hrs relative to control; type: functional
Streptococcus mutans [6] = experiment: Antibacterial activity against Streptococcus mutans ATCC 25175 assessed as effect on planktonic growth at 10.9 ug/ml after 20 hrs relative to control; type: functional
[7] = system: Staphylococcus epidermidis; experiment: Antibacterial activity against Staphylococcus epidermidis ATCC 35547 assessed as effect on planktonic growth at 0.68 ug/ml after 20 hrs relative to control; type: functional
[8] = system: Staphylococcus epidermidis; experiment: Antibacterial activity against Staphylococcus epidermidis ATCC 35547 assessed as inhibition of biofilm formation after 20 hrs by crystal-violet staining method; type: functional, organism-based; conditions: for IC50: ATCC 35547, 20 h
[9] = system: Staphylococcus epidermidis; experiment: Antibacterial activity against Staphylococcus epidermidis ATCC 35547 assessed as effect on planktonic growth at 0.17 ug/ml after 20 hrs relative to control; type: functional
Pseudomonas aeruginosa [10] = experiment: Antibacterial activity against Pseudomonas aeruginosa ATCC 27853 assessed as effect on planktonic growth at 21.9 ug/ml after 20 hrs relative to control; type: functional
Pseudomonas aeruginosa [11] = experiment: Antibacterial activity against Pseudomonas aeruginosa ATCC 27853 assessed as inhibition of biofilm formation after 20 hrs by crystal-violet staining method; type: functional, organism-based; conditions: for IC50: ATCC 27853, 20 h
[12] = system: Staphylococcus epidermidis; experiment: Antibacterial activity against Staphylococcus epidermidis ATCC 35547 assessed as effect on planktonic growth at 0.34 ug/ml after 20 hrs relative to control; type: functional
Pseudomonas aeruginosa [13] = experiment: Antibacterial activity against Pseudomonas aeruginosa ATCC 27853 assessed as effect on planktonic growth at 0.68 ug/ml after 20 hrs relative to control; type: functional
Staphylococcus aureus [14] = experiment: Antibacterial activity against Staphylococcus aureus ATCC 25923 assessed as effect on planktonic growth at 87.5 ug/ml after 20 hrs relative to control; type: functional
Streptococcus mutans [15] = experiment: Antibacterial activity against Streptococcus mutans ATCC 25175 assessed as effect on planktonic growth at 43.8 ug/ml after 20 hrs relative to control; type: functional
Streptococcus mutans [16] = experiment: Antibacterial activity against Streptococcus mutans ATCC 25175 assessed as effect on planktonic growth at 21.9 ug/ml after 20 hrs relative to control; type: functional
Streptococcus mutans [17] = experiment: Antibacterial activity against Streptococcus mutans ATCC 25175 assessed as effect on planktonic growth at 2.73 ug/ml after 20 hrs relative to control; type: functional
Pseudomonas aeruginosa [18] = experiment: Antibacterial activity against Pseudomonas aeruginosa ATCC 27853 assessed as effect on planktonic growth at 5.5 ug/ml after 20 hrs relative to control; type: functional
Staphylococcus aureus [19] = experiment: Antibacterial activity against Staphylococcus aureus ATCC 25923 assessed as effect on planktonic growth at 43.8 ug/ml after 20 hrs relative to control; type: functional
Staphylococcus aureus [20] = experiment: Antibacterial activity against Staphylococcus aureus ATCC 25923 assessed as effect on planktonic growth at 2.73 ug/ml after 20 hrs relative to control; type: functional
[21] = system: Staphylococcus epidermidis; experiment: Antibacterial activity against Staphylococcus epidermidis ATCC 35547 assessed as effect on planktonic growth at 21.9 ug/ml after 20 hrs relative to control; type: functional
Pseudomonas aeruginosa [22] = experiment: Antibacterial activity against Pseudomonas aeruginosa ATCC 27853 assessed as effect on planktonic growth at 2.73 ug/ml after 20 hrs relative to control; type: functional
Pseudomonas aeruginosa [23] = experiment: Antibacterial activity against Pseudomonas aeruginosa ATCC 27853 assessed as effect on planktonic growth at 0.34 ug/ml after 20 hrs relative to control; type: functional
[24] = system: Staphylococcus epidermidis; experiment: Antibacterial activity against Staphylococcus epidermidis ATCC 35547 assessed as effect on planktonic growth at 2.73 ug/ml after 20 hrs relative to control; type: functional
Pseudomonas aeruginosa [25] = experiment: Antibacterial activity against Pseudomonas aeruginosa ATCC 27853 assessed as effect on planktonic growth at 10.9 ug/ml after 20 hrs relative to control; type: functional
Staphylococcus aureus [26] = experiment: Antibacterial activity against Staphylococcus aureus ATCC 25923 assessed as effect on planktonic growth at 21.9 ug/ml after 20 hrs relative to control; type: functional
Staphylococcus aureus [27] = experiment: Antibacterial activity against Staphylococcus aureus ATCC 25923 assessed as effect on planktonic growth at 0.17 ug/ml after 20 hrs relative to control; type: functional
Streptococcus mutans [28] = experiment: Antibacterial activity against Streptococcus mutans ATCC 25175 assessed as effect on planktonic growth at 87.5 ug/ml after 20 hrs relative to control; type: functional
Streptococcus mutans [29] = experiment: Antibacterial activity against Streptococcus mutans ATCC 25175 assessed as inhibition of biofilm formation at 44 ug/ml after 20 hrs by crystal-violet staining method relative to control; type: functional; conditions: ATCC 25175, 20 h
[30] = system: Staphylococcus epidermidis; experiment: Antibacterial activity against Staphylococcus epidermidis ATCC 35547 assessed as effect on planktonic growth at 10.9 ug/ml after 20 hrs relative to control; type: functional
Staphylococcus aureus [31] = experiment: Antibacterial activity against Staphylococcus aureus ATCC 25923 assessed as effect on planktonic growth at 5.5 ug/ml after 20 hrs relative to control; type: functional
Pseudomonas aeruginosa [32] = experiment: Antibacterial activity against Pseudomonas aeruginosa ATCC 27853 assessed as effect on planktonic growth at 0.17 ug/ml after 20 hrs relative to control; type: functional
Staphylococcus aureus [33] = experiment: Antibacterial activity against Staphylococcus aureus ATCC 25923 assessed as effect on planktonic growth at 10.9 ug/ml after 20 hrs relative to control; type: functional
[34] = system: Staphylococcus epidermidis; experiment: Antibacterial activity against Staphylococcus epidermidis ATCC 35547 assessed as effect on planktonic growth at 5.5 ug/ml after 20 hrs relative to control; type: functional
[35] = system: Staphylococcus epidermidis; experiment: Antibacterial activity against Staphylococcus epidermidis ATCC 35547 assessed as effect on planktonic growth at 43.8 ug/ml after 20 hrs relative to control; type: functional
Staphylococcus aureus [36] = experiment: Antibacterial activity against Staphylococcus aureus ATCC 25923 assessed as effect on planktonic growth at 0.68 ug/ml after 20 hrs relative to control; type: functional
Streptococcus mutans [37] = experiment: Antibacterial activity against Streptococcus mutans ATCC 25175 assessed as effect on planktonic growth at 5.5 ug/ml after 20 hrs relative to control; type: functional
Pseudomonas aeruginosa [38] = experiment: Antibacterial activity against Pseudomonas aeruginosa ATCC 27853 assessed as effect on planktonic growth at 43.8 ug/ml after 20 hrs relative to control; type: functional
[39] = system: Staphylococcus epidermidis; experiment: Antibacterial activity against Staphylococcus epidermidis ATCC 35547 assessed as effect on planktonic growth at 87.5 ug/ml after 20 hrs relative to control; type: functional
Pseudomonas aeruginosa [40] = experiment: Antibacterial activity against Pseudomonas aeruginosa ATCC 27853 assessed as effect on planktonic growth at 1.37 ug/ml after 20 hrs relative to control; type: functional
[41] = system: Staphylococcus epidermidis; experiment: Antibacterial activity against Staphylococcus epidermidis ATCC 35547 assessed as effect on planktonic growth at 1.37 ug/ml after 20 hrs relative to control; type: functional
Staphylococcus aureus [42] = experiment: Antibacterial activity against Staphylococcus aureus ATCC 25923 assessed as effect on planktonic growth at 0.34 ug/ml after 20 hrs relative to control; type: functional
Pseudomonas aeruginosa [43] = experiment: Antibacterial activity against Pseudomonas aeruginosa ATCC 27853 assessed as effect on planktonic growth at 87.5 ug/ml after 20 hrs relative to control; type: functional

COc1ccc(C)cc1C1=C(Br)C(=O)N(CC(C)C)/C1=C\c1cccc(Cl)c1
Activity (Streptococcus mutans [1]): -4.1%
Activity (Streptococcus mutans [2]): -4.4%
Activity (Streptococcus mutans [3]): -6%
Activity (Staphylococcus aureus [4]): 12%
Activity (Streptococcus mutans [5]): -14.9%
Activity (Streptococcus mutans [6]): -32.3%
Activity [7]: -4.2%
inhibition [8]: Dose-dependent effect
IC50 [8]: 67.4 µg/mL (≈ 146 µM)
Activity [9]: 5.6%
Activity (Pseudomonas aeruginosa [10]): 21.3%
inhibition (Pseudomonas aeruginosa [11]): Dose-dependent effect
IC50 (Pseudomonas aeruginosa [11]): 0.6 µg/mL (≈ 1.3 µM)
Activity [12]: 2.4%
Activity (Pseudomonas aeruginosa [13]): 0.8%
Activity (Staphylococcus aureus [14]): 4.8%
Activity (Streptococcus mutans [15]): -42.5%
Activity (Streptococcus mutans [16]): -33.6%
Activity (Streptococcus mutans [17]): -18.8%
Activity (Pseudomonas aeruginosa [18]): 8.8%
Activity (Staphylococcus aureus [19]): 6.6%
Activity (Staphylococcus aureus [20]): 12.6%
Activity [21]: -38.6%
Activity (Pseudomonas aeruginosa [22]): 3%
Activity (Pseudomonas aeruginosa [23]): 0.8%
Activity [24]: 11.4%
Activity (Pseudomonas aeruginosa [25]): 13.5%
Activity (Staphylococcus aureus [26]): 4%
Activity (Staphylococcus aureus [27]): 10.8%
Activity (Streptococcus mutans [28]): -46.7%
inhibition at 44 µg/mL (Streptococcus mutans [29]): 34%
Activity [30]: -19.8%
Activity (Staphylococcus aureus [31]): 18.4%
Activity (Pseudomonas aeruginosa [32]): 0.9%
Activity (Staphylococcus aureus [33]): 13.2%
Activity [34]: 1.1%
Activity [35]: -38.8%
Activity (Staphylococcus aureus [36]): 9.2%
Activity (Streptococcus mutans [37]): -26.3%
Activity (Pseudomonas aeruginosa [38]): 25.6%
Activity [39]: -12.6%
Activity (Pseudomonas aeruginosa [40]): 0%
Activity [41]: 6.4%
Activity (Staphylococcus aureus [42]): 11.8%
Activity (Pseudomonas aeruginosa [43]): 35.3%

COc1cccc(/C=C2/C(c3cc(Cl)ccc3OC)=C(Br)C(=O)N2CC(C)C)c1
Activity (Streptococcus mutans [1]): -18.2%
Activity (Streptococcus mutans [2]): -19.6%
Activity (Streptococcus mutans [3]): -17.3%
Activity (Staphylococcus aureus [4]): -5.7%
Activity (Streptococcus mutans [5]): -4.4%
Activity (Streptococcus mutans [6]): 1.2%
Activity [7]: 5.5%
inhibition [8]: Dose-dependent effect
IC50 [8]: 41 µg/mL (≈ 86 µM)
Activity [9]: 5.8%
Activity (Pseudomonas aeruginosa [10]): -10%
inhibition (Pseudomonas aeruginosa [11]): Dose-dependent effect
IC50 (Pseudomonas aeruginosa [11]): > 87.5 µg/mL
Activity [12]: -0.7%
Activity (Pseudomonas aeruginosa [13]): 1%
Activity (Staphylococcus aureus [14]): 13%
Activity (Streptococcus mutans [15]): 12.3%
Activity (Streptococcus mutans [16]): 6.2%
Activity (Streptococcus mutans [17]): -6.5%
Activity (Pseudomonas aeruginosa [18]): -9.1%
Activity (Staphylococcus aureus [19]): -11.3%
Activity (Staphylococcus aureus [20]): -13.7%
Activity [21]: 11.3%
Activity (Pseudomonas aeruginosa [22]): 0.2%
Activity (Pseudomonas aeruginosa [23]): 2.8%
Activity [24]: -3.8%
Activity (Pseudomonas aeruginosa [25]): -15.5%
Activity (Staphylococcus aureus [26]): 7.2%
Activity (Staphylococcus aureus [27]): -2.6%
Activity (Streptococcus mutans [28]): 30.8%
Activity [30]: 0.9%
Activity (Staphylococcus aureus [31]): -3.5%
Activity (Pseudomonas aeruginosa [32]): 3.2%
Activity (Staphylococcus aureus [33]): -7.2%
Activity [34]: -2.3%
Activity [35]: 24.6%
Activity (Staphylococcus aureus [36]): -9.6%
Activity (Streptococcus mutans [37]): 2.6%
Activity (Pseudomonas aeruginosa [38]): -8.9%
Activity [39]: 35.5%
Activity (Pseudomonas aeruginosa [40]): 0.8%
Activity [41]: -2.6%
Activity (Staphylococcus aureus [42]): -3%
Activity (Pseudomonas aeruginosa [43]): -2.1%
